Patent publication US20220387460A1, “LIPOSOME COMPOSITIONS AND METHODS OF TREATMENT TARGETED TO TUMOR ENDOTHELIUM” (Washington University, priority 2019, published 2022)
Like-named read-outs stand apart in the source and are kept apart here.

Tests used:
[1] = in vivo; cited from earlier work
relapsed MM patients = conditions: combination treatment of AMD3100 and BTZ; cited from earlier work
MM.1S cells [2] = assay: Viability of MM cells in co-culture with HUVECs (flow cytometry); format: cell-based; conditions: Homo sapiens; 24 hours, 0-50 nM, co-culture with HUVECs (FIG. 5B); read-out: IC50, killing of MM cells
Procedure: (§1) DiD-labeled HUVECs and DiO-labeled MM.1S cells were co-cultured overnight and treated with free BTZ (0-50 nM) or liposomal BTZ (0-50 nM-equivalent) for 24 hours, and the survival of the MMs and HUVECs was analyzed via flow cytometry. MM cells were gated as DiO+ cells and HUVECs were gated as DiD+ cells, and each cell population was counted and normalized against counting beads (Invitrogen), and survival was calculated as a percentage of vehicle-treated controls. The in vitro data were expressed as means±standard deviation.

MM.1S-GFP-Luc cells = assay: MM tumor progression (BLI) and survival in MM.1S-GFP-Luc-bearing mice; format: in vivo; conditions: weekly intravenous, BTZ 1 mg/kg; for tumor progression / tumor growth (BLI): Y27632 2.5 mg/kg (FIGS. 6A-C, 8A-D); for survival of the mice: Y27632 2.5 mg/kg (FIGS. 6D-F, 9A-D)
Procedure: Mice were randomized into 12 groups of 7 mice each, which received weekly intravenous injections of: (i) saline, (ii) Y27632 as a free drug (2.5 mg/kg), (iii) BTZ as a free drug (1 mg/kg), (iv) combination of free BTZ and free Y27632, (v) empty non-targeted liposomes, (vi) non-targeted liposomal Y27632 (2.5 mg/kg-equivalent), (vii) non-targeted liposomal BTZ (1 mg/kg), (viii) non-targeted liposomal combination of BTZ and Y27632 in the same liposome (2.5 mg/kg and 1 mg/kg, respectively), (ix) empty PSGL-1-targeted liposomes, (x) PSGL-1-targeted liposomal Y27632 (2.5 mg/kg), (xi) PSGL-1-targeted liposomal BTZ (1 mg/kg), (xii) PSGL-1-targeted liposomal combination of BTZ and Y27632 in the same liposome (2.5 mg/kg and 1 mg/kg, respectively). Tumor progression was assessed weekly by BLI, weight was recorded twice a week, and survival and general health of mice were recorded daily. The in vivo data were expressed as means±standard deviation.

[3] = cited from earlier work
[4] = Drug entrapment (encapsulation) efficiency by ultracentrifugation and HPLC; format: physicochemical; conditions: drug loaded in liposomes; BTZ in lipid bilayer, Y27632 in hydrophilic core
Procedure: To evaluate loading efficiency, the liposomes were centrifuged at 38,000 rpm at 4° C. for 1 hour using a Beckman Optima™ XPN ultracentrifuge equipped with an SW 50.1 […] rotor (Beckman Coulter Inc., Fullerton, Calif., USA). The amount of BTZ and Y27632 in the supernatant was evaluated by HPLC as described in Example 9. The entrapment efficiency (EE) was calculated according to the following equation: EE=DT−DU/DT×100 where DT represents the total amount of drug added to the formulation during the preparation, and DU represents the amount of unincorporated drug found in the supernatant.

HUVECs [5] = assay: Viability of HUVECs in co-culture with MM cells (flow cytometry); format: cell-based, human; conditions: 24 hours, 0-50 nM, co-culture with MM.1S (FIG. 5C)
Procedure: as §1

HUVECs [6] = assay: Immunoblotting of adhesion signaling proteins (pSRC, pFAK) in HUVECs co-cultured with MM cells; format: cell-based, human; conditions: 25 μM, 6 hours (FIG. 4B)
Procedure: (§2) HUVECs and MM1.S cells were co-cultured overnight and treated with vehicle (control), free Y27632 (25 μM), free BTZ (5 nM), empty liposomes, liposomal Y27632 (25 μM), liposomal BTZ (5 nM) for 6 hours. MM cells were then separated from the HUVECs and both cell types were collected. The proteins were then extracted and subjected to immunoblotting for pSRC, pFAK, p21, pRB, cPARP, cCasp3, cCasp9, pAKT, pS6R, pERK, and α-Tubulin.
(§3) The immunoblotting protocol was performed as previously described below. Briefly, cells were lysed with 1× lysis buffer (Cell Signaling, #9803), the protein concentration was determined by Bradford assay (BioRad, Hercules, Calif.), and 50 μg of protein was loaded per lane. Electrophoresis was performed using NuPAGE 4%-12% Bis-Tris gels (Novex, Life Technologies, Grand Island, N.Y.) and transferred to a nitrocellulose membrane using iBlot (Invitrogen). Membranes were blocked with 5% non-fat milk in Tris-Buffered Saline/Tween20 (TBST) buffer and incubated with primary antibodies overnight at 4° C. The membranes were then washed with TBST for 30 minutes, incubated for 1 hour at room temperature with horseradish peroxidase (HRP)-conjugated secondary antibody, washed, and developed using Novex ECL Plus chemiluminescent Kit. Images were taken using a ChemiDoc XRS imaging system (Bio-Rad).

MM.1S cells [7] = assay: Trans-endothelial migration of MM cells in Boyden chamber with SDF-1; format: cell-based; conditions: 25 μM pre-treatment 3 hours, 30 nM SDF-1 (FIG. 4C)
Procedure: Trans-endothelial migration was by incubating HUVECs (5×10^3 cells) overnight in the upper chamber of a Boyden chamber (Corning), followed by an adhesion assay. MM.1S cells were pre-treated with (or without) free Y27632 (25 μM) or liposomal Y27632 (25 μM equivalent) for 3 hours. The pre-treated MM.1 S cells were then placed in the upper migration chamber in the presence or absence of 30 nM SDF-1 in the lower chamber. After 3 hours of incubation, MM.1 S cells that migrated to the lower chambers were counted by flow cytometry. The in vitro data were expressed as means±standard deviation.

MM1.S cells = assay: Immunoblotting of adhesion signaling proteins (pSRC, pFAK) in MM cells co-cultured with HUVECs; format: cell-based; conditions: 25 μM, 6 hours (FIG. 4A)
Procedure: as §2, §3

SMILES: c1cc(CN2CCCNCCNCCCNCC2)ccc1CN1CCCNCCNCCCNCC1 [AMD3100]
- pharmacokinetic (PK) half-life [1]: 3 to 5 h
- overall response rate (relapsed MM patients): 510%

SMILES: CC(C)C[C@H](NC(=O)[C@H](Cc1ccccc1)NC(=O)c1cnccn1)B(O)O [BTZ, bortezomib]
- pharmacokinetic (PK) half-life [1]: 40 h
- IC50 (MM.1S cells [2]): ~0.01 µM
- tumor progression / tumor growth (BLI) (MM.1S-GFP-Luc cells): delayed significantly the tumor growth
- survival of the mice (MM.1S-GFP-Luc cells): significantly prolonged the survival
- maximum tolerated dose ([3]; intravenous bolus on days 1, 4, 8, and 11 of a 3-week cycle (Vorhees 2003)): about 1.56 mg/m^2
- maximum tolerated dose ([3]; intravenously once or twice weekly, patients with solid tumors (Orlowski 2003)): 1.3 mg/m^2
- maximal encapsulation efficiency (EE) [4]: 77%
- survival of HUVECs (HUVECs [5]): No effect

SMILES: C[C@@H](N)[C@H]1CC[C@H](C(=O)Nc2ccncc2)CC1 [Y27632]
- adhesion signaling proteins (pSRC and pFAK) in HUVECs (HUVECs [6]): decreased adhesion signaling
- SDF-induced trans-endothelial migration of MM cells (MM.1S cells [7]): reversed
- adhesion signaling proteins (pSRC and pFAK) in MM cells (MM1.S cells): decreased adhesion signaling
- tumor progression / tumor growth (BLI) (MM.1S-GFP-Luc cells): did not affect the tumor growth
- survival of the mice (MM.1S-GFP-Luc cells): did not extend the survival
- maximal encapsulation efficiency (EE) [4]: 55%
